Measured values reported in patent US10231985B2, “Compounds and compositions comprising such compounds for the prevention or treatment of dyslipidaemias” (CENTRE NATIONAL DE LA RECHERCHE SCIENTIFIQUE, priority 2013, dated 2019).

Columns and labels:
[1] = tested on: BRIN-BD11 pancreatic β-cells; assay: Cell viability of palmitic acid-lipointoxicated pancreatic β-cells (propidium iodide, flow cytometry); assay type: cell-based, rat; details: BRIN-BD11, 200 μM palmitic acid
Experimental: Pancreatic β-cells, BRIN-BD11, were grown under control conditions or in the presence of an exogenous source of saturated fatty acid (200 μM palmitic acid), as described by Dhayal & Morgan (2011), in order to generate lipointoxication conditions, with or without the addition of OAG. A) The proportion of dead cells was estimated in the absence (control) or presence of palmitic acid, for increasing concentrations of OAG. B) eIF2α phosphorylation levels were also analyzed under the various conditions by Western blot, in the presence or absence (Ø) of OAG, and were normalized to total eIF2α.
The lipid species are prepared in ethanol before being complexed with bovine serum albumin (BSA, first depleted of fatty acids) by incubation for 1 hour at 37° C. The palmitic acid stock solution is obtained by adding one volume of ethanol before the whole is heated to 70° C. for homogenization. OAG and LPA solutions are prepared in 100% ethanol at room temperature. For the incubations of mammalian cells, the final BSA and ethanol concentrations in the culture medium are kept at 1% and 0.5% (w/v), respectively.
The rat pancreatic β-cell line (BRIN-BD11) is grown in complete RPMI-1640 medium, containing 11 mM glucose and supplemented with 10% (v/v) fetal calf serum (FCS), 2 mM L-glutamine, 100 U/ml penicillin and 100 μg/ml streptomycin. For each experiment, the cells are first seeded at a density of 0.5×10^5 cells/ml in 6-well plates for 24 hours. Thereafter, the complete medium is replaced by an equivalent lacking FCS but containing the lipid reagents of interest, at the desired concentrations, complexed with BSA. Under the control conditions, identical amounts of BSA and ethanol are then used. […] After incubation on ice for 10 minutes, the samples thus obtained are analyzed by flow cytometry. A Beckman Coulter EPICS XL MCL is used for the quantification, an FL3 channel is used to detect the emissions of the PI intercalated in the DNA, and the analysis is carried out using the EXPO32 ADC software (Applied Cytometry Systems, V 1.1 build 207).

[2] = tested on: phospholipids of the cellular membranes (hem1Δ strain); assay: Fatty acid content of cellular phospholipids (lipid extraction, ESI-MS); assay type: cell-based, Saccharomyces cerevisiae
Experimental: The hem1Δ strain is grown in liquid medium (YPG^A, YPG^+, or YPG^++200 μM compound to be tested) under aerobic conditions, with shaking and at 28° C. for 7 hours, from an initial cell concentration of 2×10^6 cells/ml. At the conclusion of the culture, 10^8 cells are collected in order to carry out a total lipid extraction. After having suspended the cells in 1 ml of distilled water at 4° C., 500 μl of glass beads (Ø 0.6 mm) are added and the whole then undergoes 3 sequences of 20 seconds at 5000 rpm in a shaker (the tubes are kept on ice between each of the 3 sequences). The cell lysate then obtained, supplemented with bead-washing solution (1 ml), is then transferred to a 40 ml glass tube (Corex™) before carrying out the lipid extraction using a 2:1 (v/v) methanol:chloroform ratio. First, 6 ml of methanol is added and the whole is vortexed for 30 seconds and then incubated for 15 minutes at 65° C. Once the mixture cools to room temperature, 3 ml of chloroform is added and then the whole is vortexed again for 30 seconds before allowing the extraction to proceed for 16 hours. Later, the sample is centrifuged for 12 minutes at 10000 g before transferring the supernatant to a new Corex™ tube. After adding 2 ml of chloroform and then 4 ml of distilled water, the whole is vortexed for 30 seconds and then centrifuged for 8 minutes at 3000 g. After removing the resulting upper phase, the lower organic phase is collected in a glass hemolysis tube. Finally, the solvent is evaporated under a stream of nitrogen at 80° C. in order to obtain the total cellular lipid samples.
The total cellular lipid samples are resuspended in 1 ml of dichloromethane while being vortexed for 30 seconds. The whole is deposited on a silica column (BOND ELUT-SI, 100 mg 1 ml) preconditioned successively with 3 ml of methanol and then 2 ml of dichloromethane. The fraction retained by the column is then washed successively with 2 ml of dichloromethane and then 3 ml of acetone. Finally, 2 ml of a 50:45:5 (v/v/v) chloroform/methanol/water mixture is deposited on the column and the phospholipids thus eluted are collected in a glass hemolysis tube. The solvent is evaporated under nitrogen at 80° C. in order to obtain the cellular phospholipid samples.
Once resuspended in 100 μl of the mixture Mix^− (2:1:1 (v/v/v) isopropanol/acetonitrile/water+1% (v/v) triethylamine) or the mixture Mix^+ (2:1:1 (v/v/v) isopropanol/acetonitrile/water+1% (v/v) formic acid), the samples are analyzed by electrospray ionization mass spectrometry (ESI-MS) in negative or positive mode, respectively, and the results obtained are used to analyze the fatty acid content of the various phospholipid species.

lipase = assay: Resistance to hydrolytic activity of lipases (thin-layer chromatography); assay type: in vitro ADME; details: 10 U of lipase, 30 minutes, 37° C.
Experimental: OAG (15 μmol) and N,N-diethanololeamide were subjected (+) or not (−) to exposure to 10 U of lipase for 30 minutes at 37° C. Following the incubation, the lipid species were extracted from the samples before being separated by thin-layer chromatography.

[3] = tested on: QM strain (cells not synthesizing triglycerides); assay: Toxicity test on QM strain (growth inhibition halos); assay type: cell-based, Saccharomyces cerevisiae; details: 5 μl drops on agar, after three days
Experimental: Drops (5 μl) of OAG, LPA or oleic acid were deposited, from stock solutions at the indicated concentrations, on the surface of an agar medium over which the QM strain had been spread beforehand. […] These halos are, however, not observed in the presence of LPA or of OAG.
In parallel, wild-type (WT) and quadruple mutant (QM) strains are grown, under aerobic conditions, with shaking and at 28° C., in liquid YPG medium before seeding 3500 cells per cm^2 of YPG+2% agar (w/v). Following this transfer to solid medium, 1 μl drops of 1, 10 and 100 mM solutions of the various compounds in DMSO or EtOH are deposited on the agar surface. Separately, DMSO and EtOH are also deposited in order to evaluate the intrinsic toxicity of these two solvents. After 3 days of culture at 28° C., the toxicity of the compounds tested is evaluated by comparing the growth inhibition halo diameters obtained for the depositions of pure solvent with those of the depositions of the various concentrations of the compounds tested. Unlike the WT strain, the QM strain is incapable of buffering excess exogenous oleic acid in the form of neutral lipids (triglycerides (TG) or esterified sterols (ES)) in lipid droplets.

[4] = tested on: hem1Δ yeasts grown under SFA accumulation conditions; assay: Restoration of growth of lipointoxicated hem1Δ yeast; assay type: cell-based, Saccharomyces cerevisiae; details: after 3 days, increasing concentrations
Experimental: The strain bearing the hem1Δ mutation is grown, under aerobic conditions, with shaking and at 28° C., in liquid YPG^A medium (YPG (1% yeast extract (w/v), 1% peptone (w/v) and 2% glucose (w/v)) supplemented with 80 μg/ml 6-aminolevulinic acid (ALA)). Lipointoxication by saturated fatty acids (SFA) is caused by depletion of unsaturated fatty acids (UFA), the synthesis of which is dependent on the presence of heme (the prosthetic group of the Ole1p enzyme in particular), by transfer to YPG^+ medium (YPG supplemented with 80 μg/ml ergosterol to compensate for the sterol depletion obtained under this condition). Lipointoxication can be induced on solid YPG^+ medium+2% agar (w/v) by transferring 3500 cells (hem1Δ from preculture in YPG^A) per cm^2 or, alternatively, in liquid medium by inoculating 2×10^6 cells/ml YPG^+. Classically, the effects of SFA lipointoxication are analyzed 7 hours after the transfer to YPG^+ medium. The ability of a compound to counter the deleterious effects of SFA lipointoxication, in turn, is evaluated successively to the addition of this compound on (or in) the YPG^+ transfer medium, after seeding with the cells.
Following the induction of SFA lipointoxication (for hem1Δ grown on solid medium) 5 μl drops of solutions of the various compounds at 10 mM in dimethylsulfoxide (DMSO) or ethanol (EtOH) are deposited on the surface of the agar. The ability of a compound to counter the arrest of lipid-induced cell growth is estimated by the appearance of a halo of hem1Δ colonies at the site of the deposition of said compound after 3 days of culture at 28° C. (see Deguil et al., 2011).
Jointly with the induction of SFA lipointoxication (for hem1Δ in liquid medium), the various compounds are added to the cultures at an initial concentration of 200 μM. Proliferation is monitored by spectrometric measurement of cell density, at regular time intervals (every hour over the duration of the observation). At a wavelength of 600 nm, one optical density unit (OD600 nm) corresponds to 2×10^7 cells/ml.

Row | Structure (SMILES) | Apoptosis / proportion of dead cells of pancreatic β-cells [1] | Effect on fatty acid composition of membrane phospholipids [2] | Hydrolysis by lipases (lipase) | Growth inhibition halos on QM strain [3] | Restoration of the growth of hem1Δ yeasts [4]
1 | CCCCCCCC/C=C\CCCCCCCC(=O)OCC(CO)(CO)CO [3-hydroxy-2,2-bis(hydroxymethyl)propyl oleate] | prevent apoptosis | without restoring a normal diunsaturated phospholipid composition | – | – | –
2 | CCCCCCCC/C=C\CCCCCCCC(=O)N(CCO)CCO [N,N-diethanololeamide] | prevent apoptosis | without restoring a normal diunsaturated phospholipid composition | resists hydrolysis by lipases | – | –
3 | CCCCCCCC/C=C\CCCCCCCC(=O)O [oleic acid, reference compound] | – | – | – | growth inhibition halos (absence of colonies) can be observed | restore the growth
